Assay results as given in patent publication US8399417B2, “Food” (Ajinomoto Co., Inc., priority 2007, dated 2013).
Starred links: 1 amine or outer side, 2 acyl side, 3 side chain; linkers in the order of their positions; H or OH if unused. Non-standard residues stand in square brackets, D forms with d. No end group written: not given here. γGlu = O=C(O)[C@H](CCC(=O)[*:2])N[*:1]; Abu = CC[C@H](N)C(=O)O

Assays:
[1] = Fat-like richness and smoothness imparted to low-calorie mayonnaise, quantitative sensory evaluation test; type: in vivo, human; conditions: for Fat-like richness / Smoothness: control 0, strong 3, very strong 5 points
Method: In the same manner as that in Example 1 except that commercially-available low-calorie mayonnaise (having a fat content reduced by 50% compared with a normal product) was used instead of low-fat milk, each peptide was measured for its fat-like richness-imparting intensity.
In the same manner as that in Example 2, each sample was measured for its intensity of imparting fat-like richness.

[2] = Fat-like richness and smoothness imparted to low-fat milk, quantitative sensory evaluation test; type: in vivo, human; conditions: for Fat-like richness / Smoothness: n=12, control 0, strong 3, very strong 5 points
Method: (§1) The quantitative sensory evaluation test was performed as follows. Each of γ-Glu-Cys-Gly (glutathione), γ-Glu-Val-Gly, and γ-Glu-Abu-Gly was mixed with commercially-available low-fat milk (non-fat milk solids content: 8.6% or more, milk fat content: 1.5%) at a concentration of 0.00001 to 1 g/dl, and the intensity of imparting fat-like richness was measured.
It should be noted that each peptide was dissolved in low-fat milk, and then a sample, the pH of which was lowered, was adjusted with NaOH so that the pH might be ±0.2 with respect to the pH of the low-fat milk free of peptide.
The sensory score for fat-like richness and smoothness was defined as follows: control (free of peptide): 0 point; strong: 3 points; and very strong: 5 points. Then, the test was performed with n=12. […] As clear from Table 6, it was confirmed that the peptide imparted fat-like richness and smoothness to low-fat milk at a lower concentration than glutathione.
as §1, with “γ-Glu-Val-Gly” for “γ-Glu-Cys-Gly (glutathione), γ-Glu-Val-Gly,”, “cinacalcet” for “γ-Glu-Abu-Gly”
It should be noted that each sample was dissolved in low-fat milk, and then a sample, the pH of which was lowered, was adjusted with NaOH so that the pH might be ±0.2 with respect to the pH of the low-fat milk free of a sample.
The sensory score for fat-like richness and smoothness was defined as follows: control (free of sample): 0 point; strong: 3 points; and very strong: 5 points. Then, the test was performed with n=12.

[3] = 0.01 g/dl in low-calorie mayonnaise (fat reduced by 50%), Table 7
[4] = 0.01 g/dl in low-calorie mayonnaise, Table 7
[5] = 0.01 g/dl in low-fat milk (milk fat 1.5%), Table 6
[6] = 0.01 g/dl in low-fat milk, Table 6
[7] = 0.0001 g/dl in low-calorie mayonnaise, Table 7
[8] = 0.001 g/dl in low-calorie mayonnaise, Table 7
[9] = 0.001 g/dl in low-calorie mayonnaise, Table 9
[10] = 0.0001 g/dl in low-fat milk, Table 6
[11] = 0.001 g/dl in low-fat milk, Table 6
[12] = 0.001 g/dl in low-fat milk, Table 8

| Compound | Fat-like richness [1, 3] [points] | Taste profile [1, 4] | Smoothness [1, 4] [points] | Fat-like richness [2, 5] [points] | Smoothness [2, 6] [points] | Taste profile [1, 8] | Fat-like richness [1, 8] [points] | Smoothness [1, 8] [points] | Fat-like richness [2, 11] [points] | Smoothness [2, 11] [points] | also measured |
| --- | --- | --- | --- | --- | --- | --- | --- | --- | --- | --- | --- |
| N[C@@H](CCC(=O)N[C@@H](CS)C(=O)NCC(=O)O)C(=O)O [γ-Glu-Cys-Gly, reference compound] | 3.5 | Fat-like richness with sweet | 3.0 | 2.5 | 3.0 | – | – | – | – | – | Taste profile [2, 6]: Growth exists in the whole |
| [γGlu]-Val-Gly | – | – | – | – | – | Taste is enhanced in middle | 4.8 | 4.5 | 4.5 | 4.0 | Taste profile [1, 7]: Taste is enhanced in middle; Fat-like richness [1, 7]: 3.0 points; Smoothness [1, 7]: 3.0 points; Taste profile [1, 9]: Taste is enhanced in middle; Fat-like richness [1, 9]: 4.8 points; Smoothness [1, 9]: 4.5 points; Taste profile [2, 10]: Taste is enhanced in middle; Fat-like richness [2, 10]: 2.5 points; Smoothness [2, 10]: 2.3 points; Taste profile [2, 11]: Taste is enhanced in middle; Taste profile [2, 12]: Taste is enhanced in middle taste; Fat-like richness [2, 12]: 4.5 points; Smoothness [2, 12]: 4.0 points |
| [γGlu]-[Abu]-Gly | 4.7 | Fat-like richness with sweet | 4.3 | 4.3 | 4.0 | Fat-like richness with sweet | 3.2 | 3.0 | 2.3 | 3.0 | – |
